Data: patent US9833455B2, “Preparation and methods of use for ortho-aryl 5-membered heteroaryl-carboxamide containing multi-targeted kinase inhibitors” (Spacefill Enterprises LLC, priority 2011, dated 2017)
pIC50: −log10 of the molar value. Where two headings read alike, the source gives them in different places.

Columns and labels:
Assay in all cases: Reaction Biology P33 radiolabeled kinase assay, IC50 and time dependence
Type in all cases: biochemical
Aurora A = molecular target: T1, Aurora A (Homo sapiens, UniProt O14965); conditions: for pIC50: ATP 10 uM, read-out: Compound IC50* Aurora A
T1 construct: purchased Reaction Biology Inc (contract assay)
T1 sequence (O14965 1-403): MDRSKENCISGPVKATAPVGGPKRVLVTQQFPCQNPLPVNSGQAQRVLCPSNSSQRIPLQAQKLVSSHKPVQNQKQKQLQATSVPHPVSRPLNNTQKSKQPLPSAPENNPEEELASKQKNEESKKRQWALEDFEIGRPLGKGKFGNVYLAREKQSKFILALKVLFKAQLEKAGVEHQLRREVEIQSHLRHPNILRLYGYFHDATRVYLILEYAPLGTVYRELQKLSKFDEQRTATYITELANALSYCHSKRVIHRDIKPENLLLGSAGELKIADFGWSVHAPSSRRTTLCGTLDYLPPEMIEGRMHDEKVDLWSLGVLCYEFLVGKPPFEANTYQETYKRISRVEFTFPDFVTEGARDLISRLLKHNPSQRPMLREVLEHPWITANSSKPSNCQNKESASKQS
Experimental: (§1) “Inhibiting kinase activity” means to decrease the production of an phosphor-peptide by a particular kinase that can be separated by analytical techniques. For example, a comprehensive platform of kinase, protease, phosphatase and epigenetic assays that utilizes cutting-edge microfluidics and informatics tools to provide accurate and rapid results. Profiling data in this application were determined using these techniques at Nanosyn Inc. IC50 data were provided by Reaction Biology Inc using a P33 radiolabeled kinase assay.
(§2) The observation of potency and isoform selectivity with time-dependency for PI3K-γ appears to be unprecedented in the literature. In addition, these activities combined with inhibition of p38-α, Raf-1, DDR and CSF-1R, would be complimentary and potentially synergistic activities for both the treatment of certain inflammation based conditions and cancers.

BRAF (V599E) = molecular target: T2, BRAF (V599E) (Homo sapiens, UniProt P15056, V600E); conditions: for pIC50: ATP 10 uM, read-out: Compound IC50* BRAF (V599E)
T2 construct: purchased Reaction Biology Inc (contract assay)
T2 sequence (P15056 2-766 V600E): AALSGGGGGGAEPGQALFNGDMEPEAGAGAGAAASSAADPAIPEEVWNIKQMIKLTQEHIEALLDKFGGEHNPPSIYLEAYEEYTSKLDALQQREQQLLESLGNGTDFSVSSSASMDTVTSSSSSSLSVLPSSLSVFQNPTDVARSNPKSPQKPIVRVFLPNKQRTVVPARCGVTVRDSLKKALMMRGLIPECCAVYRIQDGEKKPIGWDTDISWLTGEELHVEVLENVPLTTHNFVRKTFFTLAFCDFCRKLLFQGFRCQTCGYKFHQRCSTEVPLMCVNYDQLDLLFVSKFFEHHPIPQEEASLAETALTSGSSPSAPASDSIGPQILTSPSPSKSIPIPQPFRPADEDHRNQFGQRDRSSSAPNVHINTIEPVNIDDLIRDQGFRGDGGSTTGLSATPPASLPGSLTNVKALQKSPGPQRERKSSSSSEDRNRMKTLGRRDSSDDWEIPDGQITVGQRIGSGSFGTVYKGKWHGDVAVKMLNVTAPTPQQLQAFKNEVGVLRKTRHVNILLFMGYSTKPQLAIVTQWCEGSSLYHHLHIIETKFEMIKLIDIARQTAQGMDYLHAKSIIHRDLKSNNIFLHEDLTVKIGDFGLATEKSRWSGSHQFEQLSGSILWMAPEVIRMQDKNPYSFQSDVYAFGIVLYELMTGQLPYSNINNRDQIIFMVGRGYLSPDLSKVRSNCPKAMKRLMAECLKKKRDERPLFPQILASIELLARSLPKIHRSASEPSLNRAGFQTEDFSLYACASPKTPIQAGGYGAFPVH
Experimental: as §1, §2

DDR2 = molecular target: T3, DDR2 (Homo sapiens, UniProt Q16832); conditions: for pIC50: ATP 10 uM, read-out: Compound IC50* DDR2
T3 sequence (Q16832 22-855): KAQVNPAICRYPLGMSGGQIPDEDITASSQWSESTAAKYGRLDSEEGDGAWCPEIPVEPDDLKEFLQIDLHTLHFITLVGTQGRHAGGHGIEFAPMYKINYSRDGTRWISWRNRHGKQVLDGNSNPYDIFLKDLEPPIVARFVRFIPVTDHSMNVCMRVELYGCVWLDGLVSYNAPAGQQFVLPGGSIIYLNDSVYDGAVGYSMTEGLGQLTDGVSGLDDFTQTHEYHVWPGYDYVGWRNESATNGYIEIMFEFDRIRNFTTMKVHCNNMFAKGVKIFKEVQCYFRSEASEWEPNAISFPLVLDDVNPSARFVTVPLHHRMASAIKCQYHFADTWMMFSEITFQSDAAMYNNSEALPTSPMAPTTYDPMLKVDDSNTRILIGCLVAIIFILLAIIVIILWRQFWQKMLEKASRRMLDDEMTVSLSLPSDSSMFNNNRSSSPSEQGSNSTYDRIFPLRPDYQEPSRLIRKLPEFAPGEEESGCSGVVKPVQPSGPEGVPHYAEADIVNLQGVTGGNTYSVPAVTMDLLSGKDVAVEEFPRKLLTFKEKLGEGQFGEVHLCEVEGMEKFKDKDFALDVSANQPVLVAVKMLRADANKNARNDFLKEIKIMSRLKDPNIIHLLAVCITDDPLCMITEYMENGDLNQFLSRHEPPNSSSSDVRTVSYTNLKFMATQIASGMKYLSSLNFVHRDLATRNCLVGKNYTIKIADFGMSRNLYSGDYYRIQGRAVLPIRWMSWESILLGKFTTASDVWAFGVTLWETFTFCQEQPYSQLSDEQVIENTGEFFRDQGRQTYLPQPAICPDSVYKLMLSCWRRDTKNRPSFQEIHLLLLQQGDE
Experimental: as §1, §2

FMS = FMS (Homo sapiens, UniProt P07333); conditions: for pIC50: ATP 10 uM, read-out: Compound IC50* FMS
Chain of FMS (P07333 20-972): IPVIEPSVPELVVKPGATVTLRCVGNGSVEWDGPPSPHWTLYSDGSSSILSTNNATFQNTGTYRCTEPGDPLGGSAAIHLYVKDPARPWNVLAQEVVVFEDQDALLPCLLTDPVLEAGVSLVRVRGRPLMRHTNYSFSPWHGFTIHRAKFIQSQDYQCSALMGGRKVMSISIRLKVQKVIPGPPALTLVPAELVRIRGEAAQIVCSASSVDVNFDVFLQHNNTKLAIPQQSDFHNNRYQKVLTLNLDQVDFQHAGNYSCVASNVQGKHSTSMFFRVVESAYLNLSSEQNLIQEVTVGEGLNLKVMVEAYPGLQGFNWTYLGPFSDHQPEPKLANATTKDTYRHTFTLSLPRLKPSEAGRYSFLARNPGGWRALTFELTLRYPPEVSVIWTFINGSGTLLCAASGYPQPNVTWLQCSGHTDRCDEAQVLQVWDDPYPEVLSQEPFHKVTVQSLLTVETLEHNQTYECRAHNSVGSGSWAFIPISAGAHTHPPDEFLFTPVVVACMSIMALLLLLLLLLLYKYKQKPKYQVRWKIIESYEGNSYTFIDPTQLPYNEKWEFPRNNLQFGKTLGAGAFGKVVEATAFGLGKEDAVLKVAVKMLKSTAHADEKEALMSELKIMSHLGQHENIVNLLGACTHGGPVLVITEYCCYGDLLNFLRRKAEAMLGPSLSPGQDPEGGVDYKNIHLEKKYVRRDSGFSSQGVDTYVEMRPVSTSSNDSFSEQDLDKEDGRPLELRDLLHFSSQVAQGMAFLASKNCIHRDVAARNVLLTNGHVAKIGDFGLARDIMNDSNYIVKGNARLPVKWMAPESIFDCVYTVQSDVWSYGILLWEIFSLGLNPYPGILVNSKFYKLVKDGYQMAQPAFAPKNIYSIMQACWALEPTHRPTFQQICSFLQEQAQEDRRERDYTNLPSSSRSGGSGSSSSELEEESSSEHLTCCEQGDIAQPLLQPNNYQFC
Experimental: as §1, §2

P38b/MAPK11 = molecular target: T4, P38b/MAPK11 (Homo sapiens, UniProt Q15759); conditions: for pIC50: ATP 10 uM, read-out: Compound IC50* P38b/MAPK11
T4 construct: purchased Reaction Biology Inc (contract assay)
T4 sequence (Q15759 whole entry): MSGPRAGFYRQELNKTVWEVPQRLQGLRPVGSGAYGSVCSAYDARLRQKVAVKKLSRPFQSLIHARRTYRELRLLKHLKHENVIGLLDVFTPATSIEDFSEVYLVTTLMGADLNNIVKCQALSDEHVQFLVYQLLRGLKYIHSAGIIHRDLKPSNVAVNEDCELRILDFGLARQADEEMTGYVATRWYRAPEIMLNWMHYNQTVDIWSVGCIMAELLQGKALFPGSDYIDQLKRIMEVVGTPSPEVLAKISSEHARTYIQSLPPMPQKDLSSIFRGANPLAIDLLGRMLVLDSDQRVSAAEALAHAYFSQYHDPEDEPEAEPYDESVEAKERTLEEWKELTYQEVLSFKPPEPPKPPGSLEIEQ
Experimental: as §1, §2

PDGFR-β = PDGFR-β (Homo sapiens, UniProt P09619); conditions: for pIC50: ATP 10 uM, read-out: Compound IC50* PDGFR-β
Experimental: as §1, §2

PI3K-α = PI3K-α (Homo sapiens, UniProt P42336); conditions: for pIC50: ATP 10 uM, read-out: Compound IC50* PI3K-α
Chain of PI3K-α (P42336 whole entry): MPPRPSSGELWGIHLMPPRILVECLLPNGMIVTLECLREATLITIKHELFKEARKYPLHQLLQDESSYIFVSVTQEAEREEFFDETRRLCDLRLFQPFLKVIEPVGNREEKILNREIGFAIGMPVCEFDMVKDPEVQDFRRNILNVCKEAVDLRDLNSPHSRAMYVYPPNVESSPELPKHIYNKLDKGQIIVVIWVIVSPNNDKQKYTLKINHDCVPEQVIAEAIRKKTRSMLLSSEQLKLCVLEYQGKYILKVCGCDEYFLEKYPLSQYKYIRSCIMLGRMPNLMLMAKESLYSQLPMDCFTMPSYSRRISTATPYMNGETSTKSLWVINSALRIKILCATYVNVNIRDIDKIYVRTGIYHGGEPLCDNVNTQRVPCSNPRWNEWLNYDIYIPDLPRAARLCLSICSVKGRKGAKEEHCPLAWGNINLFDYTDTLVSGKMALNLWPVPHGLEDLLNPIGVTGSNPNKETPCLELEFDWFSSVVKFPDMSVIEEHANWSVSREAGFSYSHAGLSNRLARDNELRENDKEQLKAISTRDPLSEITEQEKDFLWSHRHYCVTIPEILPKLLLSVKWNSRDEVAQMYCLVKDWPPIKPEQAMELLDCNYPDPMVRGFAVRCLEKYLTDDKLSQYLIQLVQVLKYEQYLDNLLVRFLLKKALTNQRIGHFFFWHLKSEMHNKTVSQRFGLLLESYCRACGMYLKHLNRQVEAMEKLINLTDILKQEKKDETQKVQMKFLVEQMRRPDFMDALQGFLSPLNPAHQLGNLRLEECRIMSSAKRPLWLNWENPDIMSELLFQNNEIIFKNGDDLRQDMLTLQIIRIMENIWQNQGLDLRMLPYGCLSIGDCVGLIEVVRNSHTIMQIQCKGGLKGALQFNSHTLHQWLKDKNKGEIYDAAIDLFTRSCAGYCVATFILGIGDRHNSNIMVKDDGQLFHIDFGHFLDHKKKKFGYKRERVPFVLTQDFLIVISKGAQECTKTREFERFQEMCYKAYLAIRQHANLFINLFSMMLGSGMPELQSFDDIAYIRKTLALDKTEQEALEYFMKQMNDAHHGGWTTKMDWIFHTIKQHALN
Chain of PI3K-α (P27986 whole entry partner): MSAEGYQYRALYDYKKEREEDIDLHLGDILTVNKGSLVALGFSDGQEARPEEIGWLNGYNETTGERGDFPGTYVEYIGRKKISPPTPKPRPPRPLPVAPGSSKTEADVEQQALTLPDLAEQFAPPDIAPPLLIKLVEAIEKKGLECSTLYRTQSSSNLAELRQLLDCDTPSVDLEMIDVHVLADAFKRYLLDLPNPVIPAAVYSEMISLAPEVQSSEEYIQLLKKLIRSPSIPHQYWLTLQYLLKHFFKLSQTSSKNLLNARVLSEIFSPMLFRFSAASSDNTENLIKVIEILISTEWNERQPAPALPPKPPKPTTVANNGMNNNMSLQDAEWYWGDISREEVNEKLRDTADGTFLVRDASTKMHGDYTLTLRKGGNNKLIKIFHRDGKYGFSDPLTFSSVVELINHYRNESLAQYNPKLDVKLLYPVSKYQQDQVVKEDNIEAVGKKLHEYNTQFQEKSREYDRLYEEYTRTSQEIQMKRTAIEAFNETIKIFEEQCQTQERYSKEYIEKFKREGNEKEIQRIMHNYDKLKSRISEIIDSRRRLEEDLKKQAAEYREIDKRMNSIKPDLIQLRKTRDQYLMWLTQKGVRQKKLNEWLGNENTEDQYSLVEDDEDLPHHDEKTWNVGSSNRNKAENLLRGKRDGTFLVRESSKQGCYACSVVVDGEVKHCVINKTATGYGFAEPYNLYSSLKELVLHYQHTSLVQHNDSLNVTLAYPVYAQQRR
Experimental: as §1, §2

PI3K-γ = molecular target: T5, PI3K-γ (Homo sapiens, UniProt P48736); conditions: for pIC50: ATP 10 uM, read-out: Compound IC50* PI3K-γ
T5 construct: purchased Reaction Biology Inc (contract assay)
T5 sequence (P48736 whole entry): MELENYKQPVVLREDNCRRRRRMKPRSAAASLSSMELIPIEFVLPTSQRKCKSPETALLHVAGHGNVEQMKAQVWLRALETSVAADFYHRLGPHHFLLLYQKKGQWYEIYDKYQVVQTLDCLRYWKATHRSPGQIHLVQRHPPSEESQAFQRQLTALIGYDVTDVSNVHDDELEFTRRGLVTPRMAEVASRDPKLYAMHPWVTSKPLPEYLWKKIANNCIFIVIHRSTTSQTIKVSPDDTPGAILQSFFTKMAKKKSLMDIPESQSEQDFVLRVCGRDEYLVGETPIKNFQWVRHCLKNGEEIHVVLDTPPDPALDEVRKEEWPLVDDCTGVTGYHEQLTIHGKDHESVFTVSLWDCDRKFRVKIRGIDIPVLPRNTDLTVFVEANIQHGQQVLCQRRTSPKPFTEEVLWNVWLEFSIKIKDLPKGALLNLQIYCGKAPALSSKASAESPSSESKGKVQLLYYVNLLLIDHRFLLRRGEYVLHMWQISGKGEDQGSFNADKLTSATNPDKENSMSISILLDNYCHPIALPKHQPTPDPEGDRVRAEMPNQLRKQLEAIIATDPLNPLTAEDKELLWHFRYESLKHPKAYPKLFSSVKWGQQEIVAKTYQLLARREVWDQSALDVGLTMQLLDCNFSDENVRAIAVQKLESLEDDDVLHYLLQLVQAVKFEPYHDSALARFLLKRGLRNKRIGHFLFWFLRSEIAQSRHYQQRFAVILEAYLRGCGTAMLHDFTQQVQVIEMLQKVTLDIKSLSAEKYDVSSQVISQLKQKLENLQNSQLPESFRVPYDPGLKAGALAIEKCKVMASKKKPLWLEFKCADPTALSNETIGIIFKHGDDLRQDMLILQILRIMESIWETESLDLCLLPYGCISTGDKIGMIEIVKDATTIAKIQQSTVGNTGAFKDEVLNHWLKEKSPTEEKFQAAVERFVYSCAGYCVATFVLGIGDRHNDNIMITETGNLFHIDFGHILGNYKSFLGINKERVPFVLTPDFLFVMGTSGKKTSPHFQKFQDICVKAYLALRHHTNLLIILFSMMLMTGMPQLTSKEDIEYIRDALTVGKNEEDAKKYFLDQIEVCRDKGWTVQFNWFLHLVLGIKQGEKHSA
Experimental: as §1, §2

ROS/ROS1 = molecular target: T6, ROS/ROS1 (Homo sapiens, UniProt P08922); conditions: for pIC50: ATP 10 uM, read-out: Compound IC50* ROS/ROS1
T6 construct: purchased Reaction Biology Inc (contract assay)
Experimental: as §1, §2

c-Kit = molecular target: T7, c-Kit (Homo sapiens, UniProt P10721); conditions: for pIC50: ATP 10 uM, read-out: Compound IC50* c-Kit
T7 construct: purchased Reaction Biology Inc (contract assay)
Experimental: as §1, §2

Compound: Cc1ccc(NC(=O)c2nc(S(C)(=O)=O)[nH]c2-c2ccc(F)cc2)cc1Nc1nccc(-c2cccnc2)n1 [Inhibitor I-14, 3-(4-(pyridin-3-yl)-pyrimidinyl-2-yl)amino-4-methyl-analine, 5-(4-Fluorophenyl)-2-(methylsulfonyl)-1H-imidazole-4-carboxamide]
- Time Dependence Observed? Aurora A (Aurora A; 15 vs 60 Min preincubation): No
- pIC50 (Aurora A; preincubation 15 Min): 5.56
- pIC50 (Aurora A; preincubation 60 Min): 5.58
- Time Dependence Observed? BRAF (V599E) (BRAF (V599E); 15 vs 60 Min preincubation): No
- pIC50 (BRAF (V599E); preincubation 15 Min): 6.71
- pIC50 (BRAF (V599E); preincubation 60 Min): 6.71
- Time Dependence Observed? DDR2 (DDR2; 15 vs 60 Min preincubation): No
- pIC50 (DDR2; preincubation 15 Min): 6.65
- pIC50 (DDR2; preincubation 60 Min): 6.66
- Time Dependence Observed? FMS (FMS; 15 vs 60 Min preincubation): No
- pIC50 (FMS; preincubation 15 Min): 6.66
- pIC50 (FMS; preincubation 60 Min): 6.62
- Time Dependence Observed? P38b/MAPK11 (P38b/MAPK11; 15 vs 60 Min preincubation): No
- pIC50 (P38b/MAPK11; preincubation 15 Min): 5.99
- pIC50 (P38b/MAPK11; preincubation 60 Min): 5.96
- Time Dependence Observed? PDGFR-β (PDGFR-β; 15 vs 60 Min preincubation): No
- pIC50 (PDGFR-β; preincubation 15 Min): 5.70
- pIC50 (PDGFR-β; preincubation 60 Min): 5.60
- Time Dependence Observed? PI3K-α (PI3K-α; 15 vs 60 Min preincubation): Yes
- pIC50 (PI3K-α; preincubation 15 Min): 6.05
- pIC50 (PI3K-α; preincubation 60 Min): 6.41
- Time Dependence Observed? PI3K-γ (PI3K-γ; 15 vs 60 Min preincubation): Yes
- pIC50 (PI3K-γ; preincubation 15 Min): 6.90
- pIC50 (PI3K-γ; preincubation 60 Min): 7.24
- Time Dependence Observed? ROS/ROS1 (ROS/ROS1; 15 vs 60 Min preincubation): No
- pIC50 (ROS/ROS1; preincubation 15 Min): 5.90
- pIC50 (ROS/ROS1; preincubation 60 Min): 5.89
- Time Dependence Observed? c-Kit (c-Kit; 15 vs 60 Min preincubation): No
- pIC50 (c-Kit; preincubation 15 Min): 6.11
- pIC50 (c-Kit; preincubation 60 Min): 6.01
